# Data as given in article PMC10746112, “Synthesis and Pro-Apoptotic Effects of Nitrovinylanthracenes and Related Compounds in Chronic Lymphocytic Leukaemia (CLL) and Burkitt’s Lymphoma (BL)” (Molecules, 2023).
# Tested on: MUTU-1 cells
# Test: not given
# Design: method as in earlier work
# Details: nitrostyrenes and taxol, MTT assay, reported data; cited from earlier work
row,Structure (SMILES),IC50 [µM]
1,C/C(=C\c1ccc(Cl)cc1)[N+](=O)[O-] [Compound 11i],1.3
2,C/C(=C\c1ccccc1Cl)[N+](=O)[O-] [Compound 11g],0.82
3,CC/C(=C\c1cccc(Cl)c1)[N+](=O)[O-] [Compound 11k],1.22

# Tested on: PGA-1 CLL cell line
# Test: alamarBlue cell viability assay
# Details: 10 µM, 24 h
row,Structure (SMILES),% Viability PGA-1 [%]
1,CC/C(=C\c1cccc(Cl)c1)[N+](=O)[O-] [Compound 11k],4.34

# Same assay, conditions: CLL cell, 24 h, read-out: % Viability PGA-1, 1 µM, 24 h
row,Structure (SMILES),viability at 1 µM [%]
1,CC/C(=C\c1cccc(Cl)c1)[N+](=O)[O-] [Compound 11k],3.26

# Tested on: HeLa cervical cancer cells
# Test: alamarBlue cell viability assay
# Details: Homo sapiens, 24 h, read-out: % Viable Cells Remaining HeLa 24 h 1 µM
row,Structure (SMILES),viability at 1 µM [%]
1,C/C(=C\c1ccc(Cl)cc1)[N+](=O)[O-] [Compound 11i],93
2,C/C(=C\c1ccccc1Cl)[N+](=O)[O-] [Compound 11g],87.1

# Same assay, conditions: Homo sapiens, 24 h, read-out: % Viable Cells Remaining HeLa 24 h 10 µM
row,Structure (SMILES),viability at 10 µM [%]
1,C/C(=C\c1ccc(Cl)cc1)[N+](=O)[O-] [Compound 11i],17.7
2,C/C(=C\c1ccccc1Cl)[N+](=O)[O-] [Compound 11g],34.2

# Tested on: HL-60 promyelocytic leukaemia cells
# Test: alamarBlue cell viability assay
# Details: Homo sapiens, HL-60, 24 h, read-out: % Viable Cells Remaining HL60 24 h 1 µM
row,Structure (SMILES),viability at 1 µM [%]
1,C/C(=C\c1ccc(Cl)cc1)[N+](=O)[O-] [Compound 11i],104
2,C/C(=C\c1ccccc1Cl)[N+](=O)[O-] [Compound 11g],73.4

# Same assay, conditions: Homo sapiens, HL-60, 24 h, read-out: % Viable Cells Remaining HL60 24 h 10 µM
row,Structure (SMILES),viability at 10 µM [%]
1,C/C(=C\c1ccc(Cl)cc1)[N+](=O)[O-] [Compound 11i],6.5
2,C/C(=C\c1ccccc1Cl)[N+](=O)[O-] [Compound 11g],16.5

# Tested on: MUTU-I Burkitt’s lymphoma cell line
# Test: not given
# Details: nitrostyrenes, 1 µM, 24 h; cited from earlier work
row,Structure (SMILES),% Viable Cells Remaining MUTU-1 24 h 1 µM [%]
1,C/C(=C\c1ccc(Cl)cc1)[N+](=O)[O-] [Compound 11i],67.22
2,C/C(=C\c1ccccc1Cl)[N+](=O)[O-] [Compound 11g],44.16

# Same assay, conditions: nitrostyrenes, 10 µM, 24 h; cited from earlier work
row,Structure (SMILES),% Viable Cells Remaining MUTU-1 24 h 10 µM [%]
1,C/C(=C\c1ccc(Cl)cc1)[N+](=O)[O-] [Compound 11i],10.53
2,C/C(=C\c1ccccc1Cl)[N+](=O)[O-] [Compound 11g],14.91
3,CC/C(=C\c1cccc(Cl)c1)[N+](=O)[O-] [Compound 11k],2.39

# Tested on: MCF-7 human breast cancer cells
# Test: alamarBlue cell viability assay
# Details: MCF7, 72 h, read-out: % Viable Cells Remaining MCF-7 72 h 1 µM
row,Structure (SMILES),viability at 1 µM [%]
1,C/C(=C\c1ccc(Cl)cc1)[N+](=O)[O-] [Compound 11i],103
2,C/C(=C\c1ccccc1Cl)[N+](=O)[O-] [Compound 11g],81.4

# Same assay, conditions: MCF7, 72 h, read-out: % Viable Cells Remaining MCF-7 72 h 10 µM
row,Structure (SMILES),viability at 10 µM [%]
1,C/C(=C\c1ccc(Cl)cc1)[N+](=O)[O-] [Compound 11i],37.1
2,C/C(=C\c1ccccc1Cl)[N+](=O)[O-] [Compound 11g],41.7

# Tested on: DG-75 BL cells
# Test: Annexin V/PI apoptotic assay (FACS)
# Format: cell-based
# Details: 10 µM, 48 h, total (early + late) apoptosis
# Procedure: (§1) The chemotherapeutic drug taxol was used as a positive control. The pro-apoptotic effects of the selected nitrostyrene compounds 11g, 11h, 11i, 11j, 11k and 11l (10 μM) were determined using FITC (fluorescein isothiocyanate), Annexin V/PI (propidium iodide) staining and FACS (fluorescence-activated cell sorting) analysis to characterise the mode of cellular death induced by the synthesised compounds. Four populations were produced in this assay: Annexin-V- and PI-negative (Q4, healthy cells), Annexin-V-positive and PI-negative (Q3, early apoptosis), Annexin-V- and PI-positive (Q2, late apoptosis) and Annexin-V-negative and PI-positive (Q1, necrosis), which were easily identified and quantified. Apoptosis was assessed as % total apoptosis by a combination of early and late apoptosis (Q3 and Q2, respectively). […] The identification of compounds that can induce apoptosis in cancer cells is required in the development of potential lead structures for anticancer drugs.
# (§2) The BL cells DG-75 and MUTU-I (750,000) were treated at 37 °C with either vehicle (0.1% (v/v) EtOH), […] taxol (10 μM) and incubated for 24 h (MUTU-1) or 48 h (DG-75). The CLL cells PGA1 and HG3 (1 × 10^6 cells/mL) were treated at 37 °C with either vehicle (1% (v/v) DMSO) or the nitrostyrene compounds 19a (10 μM, 5 μM and 1 μM) and 19g, 19i, 19l and 19m (10 μM and 1 μM) for 48 h. The cells were then harvested by centrifugation at 400× g in a temperature-controlled Sorvall centrifuge and rinsed with 0.5 mL of Ca^2+ Annexin-V-binding buffer (0.1 M HEPES, pH 7.4; 0.14 M NaCl; 25 mM CaCl2). The samples were resuspended in 50 µL FITC Annexin V (diluted 1:33 in Ca^2+ Annexin V-binding buffer), incubated on ice for 10 min (protected from light), washed with Annexin-V-binding buffer and re-suspended in 500 µL of propidium iodide (PI) solution (0.5 µg/mL). The samples were analysed within 1 h using a BD Accuri C6 flow cytometer counting 10,000 cells and analysed using the FlowJo software (FlowJo LLC, Ashland, OR, USA) package.
row,Structure (SMILES),DG-75 Apoptosis (%)
1,C/C(=C\c1ccc(Cl)cc1)[N+](=O)[O-] [Compound 11i],86.4
2,C/C(=C\c1ccccc1Cl)[N+](=O)[O-] [Compound 11g],70.6
3,CC/C(=C\c1cccc(Cl)c1)[N+](=O)[O-] [Compound 11k],90.7

# Tested on: MUTU-I BL cells
# Test: Annexin V/PI apoptotic assay (FACS)
# Format: cell-based
# Details: 10 µM, 24 h, total (early + late) apoptosis
# Procedure: as §1, §2
row,Structure (SMILES),MUTU-I Apoptosis (%)
1,C/C(=C\c1ccc(Cl)cc1)[N+](=O)[O-] [Compound 11i],84.5
2,C/C(=C\c1ccccc1Cl)[N+](=O)[O-] [Compound 11g],80.9
3,CC/C(=C\c1cccc(Cl)c1)[N+](=O)[O-] [Compound 11k],91.5

# Tested on: DG-75 Burkitt’s lymphoma cell line
# Test: not given
# Details: nitrostyrenes, 1 µM, 48 h; cited from earlier work
row,Structure (SMILES),% Viable Cells Remaining DG-75 48 h 1 µM [%]
1,C/C(=C\c1ccc(Cl)cc1)[N+](=O)[O-] [Compound 11i],88.76
2,C/C(=C\c1ccccc1Cl)[N+](=O)[O-] [Compound 11g],75.86

# Same assay, conditions: nitrostyrenes, 10 µM, 48 h; cited from earlier work
row,Structure (SMILES),% Viable Cells Remaining DG-75 48 h 10 µM [%]
1,C/C(=C\c1ccc(Cl)cc1)[N+](=O)[O-] [Compound 11i],0.72
2,C/C(=C\c1ccccc1Cl)[N+](=O)[O-] [Compound 11g],−0.08

# Tested on: HG-3 CLL cell line
# Test: alamarBlue cell viability assay
# Details: 10 µM, 24 h
row,Structure (SMILES),% Viability HG-3 [%]
1,CC/C(=C\c1cccc(Cl)c1)[N+](=O)[O-] [Compound 11k],0.11

# Same assay, conditions: CLL cell, 24 h, read-out: % Viability HG-3, 1 µM, 24 h
row,Structure (SMILES),viability at 1 µM [%]
1,CC/C(=C\c1cccc(Cl)c1)[N+](=O)[O-] [Compound 11k],60.7

# Tested on: DG-75 cells
# Test: not given
# Design: method as in earlier work
# Details: nitrostyrenes and taxol, MTT assay, reported data; cited from earlier work
row,Structure (SMILES),IC50 [µM]
1,C/C(=C\c1ccc(Cl)cc1)[N+](=O)[O-] [Compound 11i],2.75
2,C/C(=C\c1ccccc1Cl)[N+](=O)[O-] [Compound 11g],2.75
3,CC/C(=C\c1cccc(Cl)c1)[N+](=O)[O-] [Compound 11k],2.36

# Tested on: Ramos BL cell line
# Test: alamarBlue cell viability assay
# Format: cell-based
# Details: Homo sapiens, 24 h, read-out: % Viable Cells Remaining Ramos 24 h 1 µM
# Procedure: (§3) Cells were seeded at a density of 2.5 × 10^4 cells/well (MCF-7, MDA-MB-231 cells), 1 × 10^4 cells/well (HL-60 cells), 1–5 × 10^4 cells per well (BL MUTU-I, DG-75 cells) and 2 × 10^5 cells/well [HG-3, PGA-1 (CLL cells)], Ramos, BJAB (BL cells) (200 μL per well), in 96-well plates. Cells were treated with the desired drug concentration for the appropriate time for each cell type, and the samples were incubated as required. alamarBlue (20 μL) was then added to each well and the samples further incubated in the dark at 37 °C for 4 h. Wells containing only reagent and cell culture medium in the absence of cells were used as blank controls. Ethanol was used as a vehicle, and cells were treated with 1% ethanol (v/v) in all experiments. The 96-well plates were analysed on a fluorescence plate reader (SpectraMax Gemini, Molecular Devices) (emission and excitement wavelengths of 590 nm and 544 nm, respectively), and the fluorescence was recorded. The decrease in cell viability was then calculated with reference to the vehicle samples (100% viability). EMEM medium with the addition of alamarBlue was used as a blank. Vehicle-treated cells were considered to be 100% viable, and the viabilities of each compound was calculated accordingly. […] All biochemical assays were performed in triplicate on at least three independent occasions, and the mean values were determined.
row,Structure (SMILES),viability at 1 µM [%]
1,C/C(=C\c1ccc(Cl)cc1)[N+](=O)[O-] [Compound 11i],62.6
2,C/C(=C\c1ccccc1Cl)[N+](=O)[O-] [Compound 11g],53.4

# Same assay, conditions: Homo sapiens, 24 h, read-out: % Viable Cells Remaining Ramos 24 h 10 µM
row,Structure (SMILES),viability at 10 µM [%]
1,C/C(=C\c1ccc(Cl)cc1)[N+](=O)[O-] [Compound 11i],13.9
2,C/C(=C\c1ccccc1Cl)[N+](=O)[O-] [Compound 11g],7.7

# Tested on: Bjab BL cell line
# Test: alamarBlue cell viability assay
# Format: cell-based
# Details: Homo sapiens, 24 h, read-out: % Viable Cells Remaining Bjab 24 h 1 µM
# Procedure: as §3
row,Structure (SMILES),viability at 1 µM [%]
1,C/C(=C\c1ccc(Cl)cc1)[N+](=O)[O-] [Compound 11i],100
2,C/C(=C\c1ccccc1Cl)[N+](=O)[O-] [Compound 11g],82.2

# Same assay, conditions: Homo sapiens, 24 h, read-out: % Viable Cells Remaining Bjab 24 h 10 µM
row,Structure (SMILES),viability at 10 µM [%]
1,C/C(=C\c1ccc(Cl)cc1)[N+](=O)[O-] [Compound 11i],50.8
2,C/C(=C\c1ccccc1Cl)[N+](=O)[O-] [Compound 11g],51.9
